Reference: US8378104B2 (OSI Pharmaceuticals, LLC, priority 2010, dated 2013)
pIC50: −log10 of the molar value.

Assays:
TAK1-TAB1 fusion protein = target: T1, TAK1-TAB1 fusion protein (Homo sapiens, UniProt O43318); assay: TAK1 biochemical assay (AlphaScreen, GST-MAP2K7 substrate); details: TAK1-TAB1 fusion protein, GST-MAP2K7 substrate; read-out: mean TAK1 IC50 (Col. A)
T1 construct: purchased Carna
T1 sequence (O43318 with tags, fused parts or gaps limits assumed): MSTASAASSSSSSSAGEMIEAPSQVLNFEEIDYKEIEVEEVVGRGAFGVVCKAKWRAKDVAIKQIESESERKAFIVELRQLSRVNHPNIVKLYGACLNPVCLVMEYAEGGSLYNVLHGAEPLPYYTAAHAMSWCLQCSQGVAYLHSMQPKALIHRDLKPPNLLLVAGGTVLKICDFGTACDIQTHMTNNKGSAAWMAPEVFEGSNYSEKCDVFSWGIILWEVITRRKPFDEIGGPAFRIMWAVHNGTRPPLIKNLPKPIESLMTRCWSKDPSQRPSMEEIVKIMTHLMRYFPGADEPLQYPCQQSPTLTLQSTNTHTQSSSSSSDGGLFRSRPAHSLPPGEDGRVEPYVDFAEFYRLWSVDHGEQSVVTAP

pJNK in HCT-116 cells = assay: Phospho-JNK (Thr183/Tyr185) Meso Scale ELISA assay, TNFα-stimulated HCT-116 cells; type: cell-based; details: Homo sapiens, read-out: mean HCT-116 pJNK ELISA IC50 (Col. B)
Experimental: Detailed below are ELISA assays for pJNK and p38, and a TAK1 biochemical assay. […] In Table 1, Col.
Phospho-JNK (Thr183/Tyr185) Meso Scale ELISA Assay
• 1. Plate HCT-116 cells at 25,000 per well in 100 uL in 96 well clear dishes in normal growth medium. Day 2: • 1. Aspirate medium and replace with 90 μl reduced serum growth medium (1% FCS), incubate for 2 hours at 37° C. • 2. Make drugs at 10× in reduced serum medium and add 10 uL per well. • 3. Incubate at 37° C. for 4 hrs. • 4. Bring capture plates to room temperature. • 5. Block with 150 μl Blocking Solution (provided with kit) (600 mg Blocker A into 20 mL 1× Wash Buffer per plate) at room temperature with shaking. • 6. Wash plates 4× with 200 μl 1× wash buffer (10× provided with kit) before transferring lysates. • 7. Dilute TNFα to […] in reduced serum medium (this makes a 10× working stock). • 8. Add 10 μl TNFα to all wells except negative control wells, final concentration is 10 ng/mL. • 9. Incubate at 37° C. for 10 minutes. • 10. Remove medium by flicking into sink • 11. Wash cells with 100 uL ice cold PBS. • 12. Remove PBS by flicking into sink and patting on paper towels. • 13. Lyse cells in 50 μl ice cold 1× Complete Lysis Buffer plus Phosphatase and Protease inhibitors (all provided with kit) (10 mL Tris Lysis Buffer+200 μl Protease inhibitor solution+100 μl Phosphatase inhibitor I+100 μl Phosphatase inhibitor II). • 14. Incubate with shaking at 4° C. for 30 minutes. • 15. Transfer 45 μl to capture plate, cover with adhesive cover, and incubate at 4° C. over night with shaking. • Day 3: • 1. Wash plates 4× with 200 μl 1× wash buffer (10× provided with kit). • 2. […] Incubate at room temperature with shaking for 1 hour. • 4. Wash 4× with 200 μl 1× Wash Buffer. • 5. […] Read on Sector Imager. Phospho-p38 Meso Scale ELISA Assay Day 1: • 1. Plate HCT-116 cells at 25,000 per well in 100 uL in 96 well clear dishes in normal growth medium. zday 2: • 1. Aspirate medium and replace with 90 μl reduced serum growth medium (1% FCS), incubate for 2 hours at 37° C. • 2. Make drugs at 10× in reduced serum medium and add 10 uL per well. • 3. Incubate at 37° C. for 4 hrs. • 4. Bring capture plates to room temperature. • 5. Block with 150 μl Blocking Solution (provided with kit) (600 mg Blocker A into 20 mL 1× Wash Buffer per plate) at room temperature with shaking. • 6. Wash plates 4× with 200 μl 1× wash buffer (10× provided with kit) before transferring lysates. • 7. Dilute TNFα to […] in reduced serum medium (this makes a 10× working stock). • 8. Add 10 μl TNFα to all wells except negative control wells, final concentration is 10 ng/mL. • 9. Incubate at 37° C. for 10 minutes. • 10. Remove medium by flicking into sink • 11. Wash cells with 100 uL ice cold PBS. • 12. Remove PBS by flicking into sink and patting on paper towels. • 13. Lyse cells in 50 μl ice cold 1× Complete Lysis Buffer plus phosphatase and protease inhibitors (all provided with kit) (10 mL Tris Lysis Buffer+200 μl Protease inhibitor solution+100 μl Phosphatase inhibitor I+100 μl Phosphatase inhibitor II). • 14. Incubate with shaking at 4° C. for 30 minutes. • 15. Dilute lysates before transferring to capture plate with 100 μl Complete p38 Lysate • Dilution Buffer (provided with kit) (10 mL of Diluent 20±200 μl Protease inhibitor solution+100 μl Phosphatase inhibitor I+100 μl Phosphatase inhibitor II). • 16. Transfer 50 μl of diluted lysates to capture plate, cover with adhesive cover, and incubate at 4° C. over night with shaking. Day 3: • 1. Wash plates 4× with 200 μl 1× wash buffer (10× provided with kit). • 2. […] Incubate at room temperature with shaking for 1 hour. • 4. Wash 4× with 200 μl 1× Wash Buffer. • 5. […] Read on Sector Imager. TAK1 Biochemical Assay

Compound	pIC50 (TAK1-TAB1 fusion protein)	pIC50 (pJNK in HCT-116 cells)
Nc1ncc(-c2cnn([C@H]3CC[C@H](O)CC3)c2)c2c(Cl)c(-c3cccc4ncsc34)oc12 [Example 288, trans-4-{4-[7-amino-2-(1,3-benzothiazol-7-yl)-3-chlorofuro[2,3-c]pyridin-4-yl]-1H-pyrazol-1-yl}cyclohexanol]	> 7.00	> 7.00
CC(C)(C)OC(=O)N1[C@@H]2CC[C@H]1C[C@H](n1cc(-c3cnc(N)c4oc(-c5csc6cnccc56)cc34)cn1)C2 [Example 299, tert-butyl (3-exo)-3-{4-[7-amino-2-(thieno[2,3-c]pyridin-3-yl)furo[2,3-c]pyridin-4-yl]-1H-pyrazol-1-yl}-8-azabicyclo[3.2.1]octane-8-carboxylate]	6.00 to 7.00	6.00 to 7.00
CC(C)(C)OC(=O)N1[C@@H]2CC[C@H]1C[C@H](n1cc(-c3cnc(N)c4oc(-c5cccc6cnsc56)cc34)cn1)C2 [Example 301, tert-butyl (3-exo)-3-{4-[7-amino-2-(1,2-benzisothiazol-7-yl)furo[2,3-c]pyridin-4-yl]-1H-pyrazol-1-yl}-8-azabicyclo[3.2.1]octane-8-carboxylate]	6.00 to 7.00	6.00 to 7.00
Nc1ncc(-c2cnn(C3CCC(O)C3)c2)c2cc(-c3csc4cnccc34)oc12 (stereo not drawn) [Example 306, 3-[4-(7-amino-2-thieno[2,3-c]pyridin-3-yl-furo[2,3-c]pyridin-4-yl)-pyrazol-1-yl]-cyclopentanol]	> 7.00	6.00 to 7.00
Nc1ncc(-c2cnn([C@H]3CC[C@H](O)C3)c2)c2cc(-c3csc4cnccc34)oc12 [Example 307, (1S,3S)-3-[4-(7-amino-2-thieno[2,3-c]pyridin-3-yl-furo[2,3-c]pyridin-4-yl)-pyrazol-1-yl]-cyclopentanol]	> 7.00	6.00 to 7.00
Nc1ncc(-c2cnn([C@@H]3CC[C@@H](O)C3)c2)c2cc(-c3csc4cnccc34)oc12 [Example 308, (1R,3R)-3-[4-(7-amino-2-thieno[2,3-c]pyridin-3-yl-furo[2,3-c]pyridin-4-yl)-pyrazol-1-yl]-cyclopentanol]	> 7.00	6.00 to 7.00
Nc1ncc(-c2cnn([C@@H]3C[C@H]4CC[C@@H](C3)N4)c2)c2cc(-c3csc4cnccc34)oc12 [Example 320, 4-{1-[(3-exo)-8-azabicyclo[3.2.1]oct-3-yl]-1H-pyrazol-4-yl}-2-(thieno[2,3-c]pyridin-3-yl)furo[2,3-c]pyridin-7-amine]	> 7.00	6.00 to 7.00
Nc1ncc(-c2cnn([C@@H]3C[C@H]4CC[C@@H](C3)N4)c2)c2cc(-c3cccc4cnsc34)oc12 [Example 321, 4-{1-[(3-exo)-8-azabicyclo[3.2.1]oct-3-yl]-1H-pyrazol-4-yl}-2-(1,2-benzisothiazol-7-yl)furo[2,3-c]pyridin-7-amine]	> 7.00	6.00 to 7.00
Nc1ncc(-c2cnn([C@@H]3C[C@H]4CC[C@@H](C3)N4C=O)c2)c2cc(-c3csc4cnccc34)oc12 [Example 324, (3-exo)-3-{4-[7-amino-2-(thieno[2,3-c]pyridin-3-yl)furo[2,3-c]pyridin-4-yl]-1H-pyrazol-1-yl}-8-azabicyclo[3.2.1]octane-8-carbaldehyde]	> 7.00	> 7.00
CC(=O)N1[C@@H]2CC[C@H]1C[C@H](n1cc(-c3cnc(N)c4oc(-c5csc6cnccc56)cc34)cn1)C2 [Example 325, 1-[(3-exo)-3-{4-[7-amino-2-(thieno[2,3-c]pyridin-3-yl)furo[2,3-c]pyridin-4-yl]-1H-pyrazol-1-yl}-8-azabicyclo[3.2.1]oct-8-yl]ethanone]	> 7.00	> 7.00
Nc1ncc(-c2cnn([C@@H]3C[C@H]4CC[C@@H](C3)N4C=O)c2)c2cc(-c3cccc4cnsc34)oc12 [Example 326, (3-exo)-3-{4-[7-amino-2-(1,2-benzisothiazol-7-yl)furo[2,3-c]pyridin-4-yl]-1H-pyrazol-1-yl}-8-azabicyclo[3.2.1]octane-8-carbaldehyde]	> 7.00	> 7.00
CC(=O)N1[C@@H]2CC[C@H]1C[C@H](n1cc(-c3cnc(N)c4oc(-c5cccc6cnsc56)cc34)cn1)C2 [Example 327, 1-[(3-exo)-3-{4-[7-amino-2-(1,2-benzisothiazol-7-yl)furo[2,3-c]pyridin-4-yl]-1H-pyrazol-1-yl}-8-azabicyclo[3.2.1]oct-8-yl]ethanone]	> 7.00	> 7.00
CN1[C@@H]2CC[C@H]1C[C@H](n1cc(-c3cnc(N)c4oc(-c5csc6cnccc56)cc34)cn1)C2 [Example 328, 4-{1-[(3-exo)-8-methyl-8-azabicyclo[3.2.1]oct-3-yl]-1H-pyrazol-4-yl}-2-(thieno[2,3-c]pyridin-3-yl)furo[2,3-c]pyridin-7-amine]	> 7.00	6.00 to 7.00
CC(C)N1[C@@H]2CC[C@H]1C[C@H](n1cc(-c3cnc(N)c4oc(-c5csc6cnccc56)cc34)cn1)C2 [Example 329, 4-{1-[(3-exo)-8-(propan-2-yl)-8-azabicyclo[3.2.1]oct-3-yl]-1H-pyrazol-4-yl}-2-(thieno[2,3-c]pyridin-3-yl)furo[2,3-c]pyridin-7-amine]	> 7.00	6.00 to 7.00
CN1[C@@H]2CC[C@H]1C[C@H](n1cc(-c3cnc(N)c4oc(-c5cccc6cnsc56)cc34)cn1)C2 [Example 330, 2-(1,2-benziso-thiazol-7-yl)-4-{1-[(3-exo)-8-methyl-8-azabicyclo[3.2.1]oct-3-yl]-1H-pyrazol-4-yl}furo[2,3-c]pyridin-7-amine]	> 7.00	6.00 to 7.00
Nc1ncc(-c2cnn(C3CCN(C(=O)CCc4ccccc4)CC3)c2)c2cc(-c3csc4cnccc34)oc12 [Example 331, 1-{4-[4-(7-amino-2-thieno[2,3-c]pyridin-3-yl-furo[2,3-c]pyridin-4-yl)-pyrazol-1-yl]-piperidin-1-yl}-3-phenyl-propan-1-one]	6.00 to 7.00	6.00 to 7.00
Nc1ncc(-c2cnn(C3CCN(C(=O)CCN4CCCCC4)CC3)c2)c2cc(-c3csc4cnccc34)oc12 [Example 332, 1-{4-[4-(7-amino-2-thieno[2,3-c]pyridin-3-yl-furo[2,3-c]pyridin-4-yl)-pyrazol-1-yl]-piperidin-1-yl}-3-piperidin-1-yl-propan-1-one]	> 7.00	6.00 to 7.00
CC(C)CNC(=O)N1CCC(n2cc(-c3cnc(N)c4oc(-c5cccc6cnsc56)cc34)cn2)CC1 [Example 338, 4-[4-(7-amino-2-benzo[d]isothiazol-7-yl-furo[2,3-c]pyridin-4-yl)-pyrazol-1-yl]-piperidine-1-carboxylic acid isobutyl-amide]	6.00 to 7.00	6.00 to 7.00
